Patent US7122679B2, “Multicyclic compounds and the use thereof” (Cephalon, Inc., priority 2000, dated 2006)

Target: recombinant human PARP (Homo sapiens, UniProt P09874)
Test: PARP activity: transfer of radiolabeled ADP-ribose units from [32P]NAD+ to a protein acceptor
Assay type: biochemical
Conditions: Table 3
Method: PARP activity was monitored by transfer of radiolabeled ADP-ribose units from [^32P]NAD^+ to a protein acceptor such as histone or PARP itself. […] The reactions were initiated by the addition of 100 μM NAD^+ supplemented with 2 uCi [^32P]NAD^+/mL and maintained at room temperature for 12 minutes. Assays were terminated by the addition of […] and the radiolabeled precipitate was collected on a 96-well filter plate (Millipore, MADP NOB 50), washed with 25% TCA. The amount of acid-insoluble radioactivity, corresponding to polyADP-ribosylated protein, was quantitated in a Wallac MicroBeta scintillation counter.
Single-point inhibition data were calculated by comparing PARP, VEGFR2, or MLK3 activity in the presence of inhibitor to activity in the presence of DMSO only. Inhibition curves for compounds were generated by plotting percent inhibition versus log10 of the concentration of compound. IC50 values were calculated by nonlinear regression using the sigmoidal dose-response (variable slope) equation in GraphPad Prism as follows: y=bottom+(top−bottom)/(1+10^(logIC^50^−x)*Hillslope) where y is the % activity at a given concentration of compound, x is the logarithm of the concentration of compound, bottom is the % inhibition at the lowest compound concentration tested, and top is the % inhibition at the highest compound concentration examined. […]

recombinant human PARP, sequence (P09874 whole entry): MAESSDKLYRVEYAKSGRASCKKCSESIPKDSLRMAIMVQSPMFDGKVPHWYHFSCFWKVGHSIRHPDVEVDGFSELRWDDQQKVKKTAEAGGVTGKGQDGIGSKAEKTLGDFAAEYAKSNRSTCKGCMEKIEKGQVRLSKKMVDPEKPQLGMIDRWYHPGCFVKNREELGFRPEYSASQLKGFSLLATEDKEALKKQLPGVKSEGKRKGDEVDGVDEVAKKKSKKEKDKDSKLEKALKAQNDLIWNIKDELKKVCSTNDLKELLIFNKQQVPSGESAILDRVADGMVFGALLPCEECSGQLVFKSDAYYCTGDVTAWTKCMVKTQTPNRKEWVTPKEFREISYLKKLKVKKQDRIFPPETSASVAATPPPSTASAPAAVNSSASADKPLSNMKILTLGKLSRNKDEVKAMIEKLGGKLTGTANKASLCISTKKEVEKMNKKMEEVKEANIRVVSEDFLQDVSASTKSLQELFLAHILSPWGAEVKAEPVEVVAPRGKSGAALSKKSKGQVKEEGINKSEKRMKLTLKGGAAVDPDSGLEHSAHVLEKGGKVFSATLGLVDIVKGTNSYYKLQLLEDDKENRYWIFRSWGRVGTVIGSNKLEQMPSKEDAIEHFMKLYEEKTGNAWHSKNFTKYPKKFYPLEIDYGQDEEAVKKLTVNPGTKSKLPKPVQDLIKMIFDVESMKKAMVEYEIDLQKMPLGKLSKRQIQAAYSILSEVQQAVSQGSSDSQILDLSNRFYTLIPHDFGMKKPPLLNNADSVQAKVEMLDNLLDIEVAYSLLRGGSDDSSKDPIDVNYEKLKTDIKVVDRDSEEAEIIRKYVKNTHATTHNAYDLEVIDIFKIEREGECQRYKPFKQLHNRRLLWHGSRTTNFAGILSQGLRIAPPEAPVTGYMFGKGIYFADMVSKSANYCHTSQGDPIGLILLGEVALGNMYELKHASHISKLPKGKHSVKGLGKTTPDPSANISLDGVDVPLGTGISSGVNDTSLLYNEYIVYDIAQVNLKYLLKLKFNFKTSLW

NCCCCC(N)C(=O)N1C(=O)c2c3c(c4[nH]c5ccc(Br)cc5c4c2C1=O)CCC3 (stereo not shown) [Compound 6e]
IC50: 69 nM
